From the supplement of paper PMC10307832

How the values were obtained:
Test in all cases: relative viability (nuclei count vs DMSO), 5 days (fraction); higher = more cells survive
Navitoclax = compound: CC1(C)CCC(c2ccc(Cl)cc2)=C(CN2CCN(c3ccc(C(=O)NS(=O)(=O)c4ccc(N[C@H](CCN5CCOCC5)CSc5ccccc5)c(S(=O)(=O)C(F)(F)F)c4)cc3)CC2)C1 [Navitoclax]
Summary of the method: (§1)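 Viability was read as treated-well nuclei divided by vehicle-well nuclei, using the median across plates. Lung cancer cell lines in 1536-well plates were kept overnight at 37 °C, pinned with five √10-spaced library-drug doses, and after 5 days were Hoechst-stained, imaged at 4× and counted in MetaXpress. Plates passed only with control CV below 25% and at least one doubling.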

C-75 = compound: CCCCCCCC[C@H]1[C@@H](C(=C)C(=O)O1)C(=O)O [C-75]
Summary of the method: as §1

AZD7762 = compound: NC(=O)Nc1cc(-c2cccc(F)c2)sc1C(=O)N[C@H]1CCCNC1 [AZD7762]
Summary of the method: as §1

[1] = compound: O=C(O)c1ccc(-c2c[nH]c3ncc(-c4ccccc4)cc23)cc1C1CCCC1
Summary of the method: as §1

XAV939 = compound: Oc1nc(-c2ccc(C(F)(F)F)cc2)nc2c1CSCC2 [XAV939]
Summary of the method: as §1

Row | Cell Line | relative viability (Navitoclax; 0.005 µM) | relative viability (Navitoclax; 0.01581 µM) | relative viability (Navitoclax; 0.05 µM) | relative viability (Navitoclax; 0.1581 µM) | relative viability (Navitoclax; 0.5 µM) | relative viability (Navitoclax; 0.5 µM, anchor plate) | relative viability (C-75; 0.08 µM) | relative viability (C-75; 0.253 µM) | relative viability (C-75; 0.8 µM) | relative viability (C-75; 2.53 µM) | relative viability (C-75; 8 µM) | relative viability (AZD7762; 0.01 µM) | relative viability (AZD7762; 0.03162 µM) | relative viability (AZD7762; 0.1 µM) | relative viability (AZD7762; 0.2 µM, anchor plate) | relative viability (AZD7762; 0.3162 µM) | relative viability (AZD7762; 1 µM) | relative viability ([1]; 0.04 µM) | relative viability ([1]; 0.1265 µM) | relative viability ([1]; 0.4 µM) | relative viability ([1]; 1.265 µM) | relative viability (XAV939; 0.08 µM) | relative viability (XAV939; 0.253 µM) | relative viability (XAV939; 0.8 µM) | relative viability (XAV939; 2.53 µM)
1 | HCC-78 | 1.03 | 1.11 | 0.729 | 0.958 | 1.02 | 0.737 | 0.948 | 0.882 | 0.817 | 0.761 | 0.95 | 1.02 | 1.14 | 0.978 | 0.706 | 0.95 | 0.552 | 0.929 | 1.24 | 1.1 | 0.864 | 0.923 | 0.8 | 0.919 | 0.667
2 | NCI-H1395 | 0.998 | 0.943 | 0.922 | 0.905 | 1 | 1.25 | 0.828 | 0.893 | 0.794 | 0.788 | 1.04 | 0.931 | 1.11 | 1.06 | 0.398 | 0.461 | 0.408 | 0.94 | 1.01 | 0.893 | 0.837 | 0.918 | 0.903 | 0.88 | 0.972
3 | NCI-H596 | 1.07 | 0.942 | 0.711 | 0.964 | 1.04 | 0.936 | 1.01 | 1.14 | 0.909 | 0.852 | 0.997 | 1.07 | 1.08 | 1.08 | 1.1 | 0.929 | 0.891 | 0.927 | 0.982 | 1.02 | 0.971 | 1.1 | 1.02 | 1.11 | 1.03
4 | BEN | 0.973 | 1.12 | 0.839 | 0.942 |  |  | 1.11 | 1.02 | 0.898 | 0.756 | 0.817 | 1.05 | 0.963 | 0.958 | 0.743 | 0.907 | 0.873 | 0.931 | 1.08 | 1 | 0.935 | 1.01 | 0.869 | 0.897 | 0.835
5 | SW 1573 | 1.03 | 1.11 | 1.06 | 0.901 | 0.956 | 0.973 | 0.981 | 1.05 | 0.946 | 0.758 | 0.855 | 1.13 | 1.05 | 1.08 |  | 0.96 | 0.607 | 0.981 | 1.03 | 0.89 | 0.706 | 1.1 | 0.857 | 0.908 | 0.81
6 | PC-14 | 1 | 1.16 | 1.05 | 0.981 | 0.956 | 1.01 | 0.939 | 0.86 | 0.902 | 0.927 | 1 | 1.03 | 0.995 | 0.931 | 0.39 | 0.562 | 0.368 | 0.956 | 1.12 | 1 | 0.962 | 1.1 | 0.933 | 0.974 | 0.885
7 | PC-3 [JPC-3] | 1.03 | 1.07 | 1.08 | 1.01 | 1.02 | 0.816 | 0.961 | 0.97 | 0.994 | 0.995 | 1.16 | 1.03 | 1.06 | 1.1 | 0.897 | 1.05 | 0.931 | 1.07 | 1.09 | 1 | 0.945 | 1.02 | 0.924 | 1.02 | 0.947
8 | NCI-H727 | 0.886 | 1.18 |  | 0.87 | 0.894 | 0.491 | 0.824 | 1.4 | 0.968 | 0.73 | 1.04 | 0.838 | 1.18 | 0.953 | 0.576 | 0.764 | 0.444 | 0.995 | 1.01 | 0.986 | 0.928 | 1.11 | 0.731 | 0.899 | 0.975
9 | NCI-H1437 | 0.969 | 1.05 | 0.932 | 0.958 | 0.974 | 1.06 | 0.941 | 1.05 | 0.919 | 0.984 | 0.987 | 1.05 | 0.963 | 1.04 | 1.11 | 1.01 | 0.867 | 0.962 | 0.988 | 0.976 | 0.586 | 1.03 | 0.901 | 0.999 | 0.93
10 | ABC-1 | 0.833 | 0.977 | 0.846 | 0.984 | 0.976 |  | 0.904 | 0.864 | 0.917 | 0.733 | 0.676 | 0.975 | 0.985 | 0.956 | 0.809 | 0.532 | 0.384 | 0.801 | 1.16 | 0.861 | 0.936 | 0.927 | 0.847 | 0.677 | 0.568
11 | NCI-H1355 | 1.03 | 1.07 | 0.956 | 0.975 | 0.986 | 1.01 | 0.966 | 1.01 | 0.921 | 0.89 | 0.982 | 0.874 | 0.979 | 0.938 | 0.819 | 1.09 | 0.785 | 1.02 | 1.14 | 0.979 | 0.744 | 0.938 | 0.831 | 0.826 | 0.759
12 | NCI-H1650 | 0.896 | 1.16 | 0.97 | 1.01 | 0.857 | 1.2 | 0.925 | 0.984 | 0.927 | 0.976 | 1.09 | 0.96 | 0.929 | 0.95 |  | 0.627 | 0.267 | 0.891 | 1.08 | 0.985 | 0.716 | 0.955 | 0.844 | 0.888 | 0.616
13 | NCI-H1623 | 0.936 | 0.957 | 0.812 | 0.984 | 1.03 |  | 1.02 | 1.22 | 1.02 | 0.931 | 0.978 | 0.869 | 0.938 | 0.936 |  | 1.1 | 0.895 | 0.963 | 0.995 | 0.932 | 0.762 | 0.922 | 0.838 | 0.848 | 0.814
14 | NCI-H522 | 0.841 | 1.12 | 1.03 | 0.912 | 0.978 |  | 0.97 | 0.898 | 1.02 | 0.721 | 0.873 | 1.02 | 1.15 | 0.955 | 0.841 | 0.939 | 0.839 | 0.851 | 1.13 | 0.83 | 0.945 | 0.962 | 0.901 | 0.983 | 0.881
